Source: US20100168176A1, “NOVEL COMPOUNDS, PHARMACEUTICAL COMPOSITIONS CONTAINING SAME, AND METHODS OF USE FOR SAME” (FASGEN LLC, priority 2006, published 2010)
Converted amounts (≈) assume the structure as drawn.

How the values were obtained:
[1] = system: MCF-7 human breast cancer cells; assay: XTT cytotoxicity assay, MCF-7 (M); assay type: cell-based; conditions: Homo sapiens, MCF7; (M) or no code; MCF-7, 72 hours
Method: The XTT assay is a non-radioactive alternative for the [^51Cr] release cytotoxicity assay. XTT is a tetrazolium salt that is reduced to a formazan dye only by metabolically active, viable cells. The reduction of XTT is measured spectrophotometrically as OD490-OD650.
To measure the cytotoxicity of specific compounds against cancer cells, 9×10^3 MCF-7 human breast cancer cells, obtained from the American Type Culture Collection are plated per well in 96 well plates in DMEM medium with 10% fetal bovine serum, insulin, penicillin, and streptomycin. Following overnight culture at 37° C. and 5% CO2, the compounds to be tested, dissolved in DMSO, are added to the wells in 1 μl volume at the following concentrations: 80, 40, 20, 10, 5, 2.5, 1.25, and 0.625 μg/ml in triplicate. Additional concentrations are tested if required. 1 μl of DMSO is added to triplicate wells are the vehicle control. C75 is run at 40, 20, 10, […], 10, and 5 in triplicate as positive controls.
After 72 hours of incubation, cells are incubated for 4 hours with the XTT reagent as per manufacturer's instructions (Cell Proliferation Kit II (XTT) Roche). Plates are read at OD490 and OD650 on a Molecular Devices SpectraMax Plus Spectrophotometer. Three wells containing the XTT reagent without cells serve as the plate blank. XTT data are reported as OD490-OD650. Averages and standard error of the mean are computed using SOFTmax Pro software ([…]).
The IC50 for the compounds is defined as the concentration of drug leading to a 50% reduction in OD400-OD650 compared to controls. The OD400-OD650 are computed by the SOFTmax PRO software (Molecular Devices) for each compound concentration. IC50 is calculated by linear regression, plotting the FAS activity as percent of control versus drug concentrations. Linear regression, best-fit line, r^2, and 95% confidence intervals are determined using Prism Version 3.0 (Graph Pad Software).

[2] = system: MCF-7 human breast cancer cells; assay: Crystal violet cell growth assay, MCF-7; assay type: cell-based; conditions: MCF7, no cell code printed, MCF-7 per method, 72 hours, read-out: Cr. Violet (IC50)
Method: Crystal Violet Cell Growth Assay
The crystal violet assay measure cell growth but not cytotoxicity. This assay employs crystal violet staining of fixed cells in 96-well plates with subsequent solubilization and measurement of OD490 on a spectrophotometer. The OD490 corresponds to cell growth per unit time measured. Cells are treated with the compounds of interest or vehicle controls and IC50 for each compound is computed.
To measure the cytotoxicity of specific compounds against cancer cells, 5×10^4 MCF-7 human breast cancer cells, obtained from the American Type Culture Collection are plated per well in 24 well plates in DMEM medium with 10% fetal bovine serum, penicillin, and streptomycin. Following overnight culture at 37° C. and 5% CO2, the compounds to be tested, dissolved in DMSO, are added to the wells in 1 μl volume at the following concentrations: 50, 40, 30, 20, and 10 μg/ml in triplicate. […]
After 72 hours of incubation, cells are stained with 0.5 ml of Crystal Violet stain (0.5% in 25% methanol) in each well. […] Following transfer of 100 μl from each well to a 96-well plate, plates are read at OD490 on a Molecular Devices SpectraMax Plus Spectrophotometer Average OD490 values are computed using SOFTmax Pro Software (Molecular Devices) and IC50 values are determined by linear regression analysis using Prism version 3.02 (Graph Pad Software, San Diego).

OV = assay: XTT cytotoxicity assay, OV; assay type: cell-based
FAO = FAO SC 150 / FAO Max; conditions: for FAO Max: at the concentration given under E18
[3] = system: MCF-7 human breast cancer cells; assay: [14C]acetate incorporation into total lipids; assay type: cell-based; conditions: MCF7
Method: Measurement of [^14 C]acetate Incorporation into Total Lipids and Determination of IC50 of Compounds
This assay measures the incorporation of [^14C]acetate into total lipids and is a measure of fatty acid synthesis pathway activity in vitro. It is utilized to measure inhibition of fatty acid synthesis in vitro.
MCF-7 human breast cancer cells cultured as above, are plated at 5×10^4 cells per well in 24-well plates. Following overnight incubation, the compounds to be tested, solubilized in DMSO, are added at 5, 10, and 20 μg/ml in triplicate, with lower concentrations tested if necessary. DMSO is added to triplicate wells for a vehicle control. C75 is run at 5 and 10 μg/ml in triplicate as positive controls. After 4 hours of incubation, 0.25 μCi of [^14C]acetate (10 μl volume) is added to each well.
After 2 hours of additional incubation, medium is aspirated from the wells and 800 μl of chloroform:methanol (2:1) and 700 μl of 4 mM MgCl2 is added to each well. Contents of each well are transferred to 1.5 Eppendorf tubes, and spun at full-speed for 2 minutes in a high-speed Eppendorf Microcentrifuge 5415D. After removal of the aqueous (upper) layer, an additional 700 μl of chloroform:methanol (2:1) and 500 μl of 4 mM MgCl2 are added to each tube and then centrifuged for 1 minutes as above. The aqueous layer is removed with a Pasteur pipette and discarded. An additional 400 μl of chloroform:methanol (2:1) and 200 μl of 4 mM MgCl2 are added to each tube, then centrifuged and aqueous layer is discarded. The lower (organic) phase is transferred into a scintillation vial and dried at 40° C. under N2 gas. Once dried, 3 ml of scintillant (APB #NBC5104) is added and vials are counted for ^14C. The Beckman Scintillation counter calculates the average cpm values for triplicates.
The IC50 for the compounds is defined as the concentration of drug leading to a 50% reduction in [^14C]acetate incorporation into lipids compared to controls. This is determined by plotting the average cpm for each inhibitor concentration tested, performing linear regression and computing the best-fit line, r^2 values, and 95% confidence intervals. The average cpm values are computed by the Beckman scintillation counter (Model LS6500) for each compound concentration. Computation of linear regression, best-fit line, r^2, and 95% confidence intervals are calculated using Prism Version 3.0 (Graph Pad Software).

| SMILES | IC50 [1] [µg/mL] | IC50 [2] [µg/mL] | IC50 (OV) [µg/mL] | FAO Max: concentration at which the maximum was seen (FAO) [µg/mL] | FAO SC 150 (FAO) | FAO Max (FAO) [% @] | IC50 [3] [µg/mL] |
| --- | --- | --- | --- | --- | --- | --- | --- |
| CCCCCCCCC1(C)SC(=O)C=C1OCC(=O)NNc1ccccc1Cl (centres unmarked) [Compound 19, (5-Methyl-5-octyl-2-oxo-thiophen-4-yloxy)-acetic-acid-N′-(2-chlorophenyl)-hydrazide] | 6.1 ± 0.3 (≈ 14.4 µM) | 7.6 (≈ 17.9 µM) | 9.4 (≈ 22.1 µM) | 0.125 | Neg | 90 | 39.8 ± 12.7 (≈ 93.6 µM) |
| CCCCCCCCC1(C)SC(=O)C=C1OCC(=O)NNC(=O)c1ccncc1 (centres unmarked) [Compound 20] | 22.5 ± 2 (≈ 53.6 µM) | 18.2 (≈ 43.4 µM) | 33 ± 9.1 (≈ 78.7 µM) | 0.125 | Neg | 89 | 17.4 (≈ 41.5 µM) |
